# The source made the active and inactive calls. No cut-off for these calls is given here.
# Legend:
# RAW264.7 [1] = assay: Cytotoxicity against mouse RAW264.7 cells assessed as reduction in cell viability at 50 uM after 24 hrs by MTT assay; type: cell-based; conditions: raw264.7, 24 h
# RAW264.7 [2] = assay: Anti-inflammatory activity in mouse RAW264.7 cells assessed as reduction in LPS-induced NO production preincubated for 30 mins followed by LPS stimulation measured after 24 hrs by Griess assay; type: functional, cell-based
# RAW264.7 [3] = assay: Inhibition of ERK phosphorylation in LPS-stimulated mouse RAW264.7 cells at 5 to 25 uM preincubated for 1 hr followed by LPS stimulation for 30 mins by Western blot method; type: cell-based
# RAW264.7 [4] = assay: Inhibition of NF-kappaB in LPS-induced mouse RAW264.7 cells assessed as reduction in iNOS protein expression levels at 5 to 25 uM preincubated for 1 hr followed by LPS stimulation measured after 24 hrs by Western blot analysis; type: cell-based
# [5] = molecular target: Transcription factor p65 (Mus musculus) (UniProt Q04207); assay: Inhibition of NF-kappaB p65 phosphorylation in nucleus of LPS-stimulated mouse RAW264.7 cells at 5 to 25 uM preincubated for 1 hr followed by LPS stimulation for 90 mins by Western blot method; type: cell-based
# RAW264.7 [6] = assay: Inhibition of JNK phosphorylation in LPS-stimulated mouse RAW264.7 cells at 5 to 25 uM preincubated for 1 hr followed by LPS stimulation for 30 mins by Western blot method; type: cell-based
# [7] = molecular target: T1, NF-kappa-B inhibitor alpha (Mus musculus) (UniProt Q9Z1E3); assay: Inhibition of IkappaBalpha phosphorylation in nucleus of LPS-stimulated mouse RAW264.7 cells at 5 to 25 uM preincubated for 1 hr followed by LPS stimulation for 90 mins by Western blot method; type: cell-based
# T1 sequence (whole entry): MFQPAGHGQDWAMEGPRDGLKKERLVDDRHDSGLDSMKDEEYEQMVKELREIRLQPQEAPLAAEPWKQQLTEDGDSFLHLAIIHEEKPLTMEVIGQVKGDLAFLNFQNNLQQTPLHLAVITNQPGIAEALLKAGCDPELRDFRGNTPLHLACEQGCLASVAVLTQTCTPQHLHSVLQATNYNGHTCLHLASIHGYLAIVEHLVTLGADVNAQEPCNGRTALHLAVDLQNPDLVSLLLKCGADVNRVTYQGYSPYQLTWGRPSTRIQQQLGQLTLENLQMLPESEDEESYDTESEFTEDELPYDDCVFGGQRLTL
# [8] = molecular target: Transcription factor p65 (Mus musculus) (UniProt Q04207); assay: Inhibition of NF-kappaB p65 phosphorylation in cytosol of LPS-stimulated mouse RAW264.7 cells at 5 to 25 uM preincubated for 1 hr followed by LPS stimulation for 90 mins by Western blot method; type: cell-based
# RAW264.7 [9] = assay: Inhibition of NF-kappaB in LPS-induced mouse RAW264.7 cells assessed as reduction in iNOS mRNA levels preincubated for 1 hr followed by LPS stimulation measured after 24 hrs by RT-PCR analysis; type: cell-based
# RAW264.7 [10] = assay: Inhibition of NF-kappaB in LPS-induced mouse RAW264.7 cells assessed as reduction in COX2 protein expression levels at 5 to 25 uM preincubated for 1 hr followed by LPS stimulation measured after 24 hrs by Western blot analysis; type: cell-based
# [11] = molecular target: MAP kinase p38 (Mus musculus) (UniProt P47811+O08911+Q9WUI1+Q9Z1B7); assay: Inhibition of MAPK p38 phosphorylation in LPS-stimulated mouse RAW264.7 cells at 5 to 25 uM preincubated for 1 hr followed by LPS stimulation for 30 mins by Western blot method; type: cell-based
# RAW264.7 [12] = assay: Inhibition of NF-kappaB in LPS-induced mouse RAW264.7 cells assessed as reduction in IL-1beta mRNA levels preincubated for 1 hr followed by LPS stimulation measured after 24 hrs by RT-PCR analysis; type: cell-based
# RAW264.7 [13] = assay: Inhibition of NF-kappaB in LPS-induced mouse RAW264.7 cells assessed as reduction in COX2 mRNA levels at 5 to 25 uM preincubated for 1 hr followed by LPS stimulation measured after 24 hrs by RT-PCR analysis; type: cell-based
# [14] = molecular target: T1, NF-kappa-B inhibitor alpha (Mus musculus); assay: Inhibition of IkappaBalpha phosphorylation in cytosol of LPS-stimulated mouse RAW264.7 cells at 5 to 25 uM preincubated for 1 hr followed by LPS stimulation for 90 mins by Western blot method; type: cell-based
# RAW264.7 [15] = assay: Inhibition of NF-kappaB in LPS-induced mouse RAW264.7 cells assessed as reduction in TNFalpha mRNA levels at 5 to 25 uM preincubated for 1 hr followed by LPS stimulation measured after 24 hrs by RT-PCR analysis; type: cell-based
# [16] = molecular target: T1, NF-kappa-B inhibitor alpha (Mus musculus); assay: Inhibition of IkappaBalpha phosphorylation in nucleus of LPS-stimulated mouse RAW264.7 cells preincubated for 1 hr followed by LPS stimulation for 90 mins by Western blot method; type: cell-based
# [17] = molecular target: Transcription factor p65 (Mus musculus) (UniProt Q04207); assay: Inhibition of NF-kappaB p65 phosphorylation in cytosol of LPS-stimulated mouse RAW264.7 cells preincubated for 1 hr followed by LPS stimulation for 90 mins by Western blot method; type: cell-based
# [18] = molecular target: Transcription factor p65 (Mus musculus) (UniProt Q04207); assay: Inhibition of NF-kappaB p65 phosphorylation in nucleus of LPS-stimulated mouse RAW264.7 cells preincubated for 1 hr followed by LPS stimulation for 90 mins by Western blot method; type: cell-based
# [19] = molecular target: T1, NF-kappa-B inhibitor alpha (Mus musculus); assay: Inhibition of IkappaBalpha phosphorylation in cytosol of LPS-stimulated mouse RAW264.7 cells preincubated for 1 hr followed by LPS stimulation for 90 mins by Western blot method; type: cell-based
# Chain of Transcription factor p65 (Mus musculus) (Q04207 whole entry): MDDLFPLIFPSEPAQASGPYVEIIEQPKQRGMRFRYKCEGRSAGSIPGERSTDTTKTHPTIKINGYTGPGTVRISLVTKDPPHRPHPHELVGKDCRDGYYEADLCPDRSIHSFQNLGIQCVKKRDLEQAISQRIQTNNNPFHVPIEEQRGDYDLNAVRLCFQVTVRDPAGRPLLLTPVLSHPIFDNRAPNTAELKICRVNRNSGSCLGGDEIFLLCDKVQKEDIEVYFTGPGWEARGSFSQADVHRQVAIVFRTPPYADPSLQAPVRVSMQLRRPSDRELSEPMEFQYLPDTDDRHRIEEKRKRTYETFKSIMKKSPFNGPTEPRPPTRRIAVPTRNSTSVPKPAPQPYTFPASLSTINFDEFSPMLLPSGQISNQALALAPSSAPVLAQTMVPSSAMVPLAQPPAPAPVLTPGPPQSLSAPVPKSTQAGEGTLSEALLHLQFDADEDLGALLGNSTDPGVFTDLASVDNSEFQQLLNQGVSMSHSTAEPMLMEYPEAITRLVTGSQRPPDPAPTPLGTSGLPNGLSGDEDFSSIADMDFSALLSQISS
SMILES,IC50 (RAW264.7 [2]) [µM],Activity (RAW264.7 [1]),other results
CC1=C2C[C@@H]3[C@](C)(O)[C@@H](O)C[C@@H](O)[C@@]3(C)C=C2OC1=O,> 100,Non-Toxic,–
CC1=C2C[C@@H]3[C@@H](C)C(=O)C=C[C@@]3(C)C[C@H]2OC1=O,70.2,Non-Toxic,–
CO[C@@]12C[C@]3(C)C=CC(=O)[C@H](C)[C@H]3CC1=C(C)C(=O)O2,31.2,Non-Toxic,inhibition (RAW264.7 [3]): inactive; inhibition (RAW264.7 [4]): Active; inhibition [5]: inactive; inhibition (RAW264.7 [6]): inactive; inhibition [7]: inactive; inhibition [8]: inactive; inhibition (RAW264.7 [9]): Dose-dependent effect; inhibition (RAW264.7 [10]): inactive; inhibition [11]: inactive; inhibition (RAW264.7 [12]): Dose-dependent effect; inhibition (RAW264.7 [13]): inactive; inhibition [14]: inactive; inhibition (RAW264.7 [15]): inactive
CC(=O)O[C@H]1C[C@@H](O)[C@@]2(C)C=C3OC(=O)C(C)=C3C[C@@H]2[C@H]1C,30,Non-Toxic,–
CC1=C2C[C@H]3[C@](C)(C=C2OC1=O)[C@H](O)CC[C@]3(C)O,> 100,Non-Toxic,–
CC1=C2C[C@@H]3[C@@H](C)[C@@H](O)C[C@@H](O)[C@@]3(C)C=C2OC1=O,> 100,Non-Toxic,–
CO[C@@]12C[C@]3(C)[C@H](O)C[C@H](OC(C)=O)[C@H](C)[C@H]3CC1=C(C)C(=O)O2,19.9,Non-Toxic,–
O=c1cc(-c2ccc(O)c(O)c2)oc2cc(O)cc(O)c12 [LUTEOLIN],5.6,–,–
CC(=O)O[C@H]1C[C@@H](O)[C@@]2(C)C[C@@]3(O)OC(=O)C(C)=C3[C@H](O)[C@@H]2[C@H]1C,> 100,Non-Toxic,–
CC1=C2C[C@H]3[C@](C)(C=C2OC1=O)[C@@H](O)CC[C@]3(C)O,> 100,Non-Toxic,–
CO[C@]12C[C@]3(C)C=CC(=O)[C@H](C)[C@H]3CC1=C(C)C(=O)O2,17.9,Non-Toxic,inhibition [16]: Dose-dependent effect; inhibition (RAW264.7 [3]): inactive; inhibition (RAW264.7 [4]): Active; inhibition (RAW264.7 [6]): inactive; inhibition [17]: Dose-dependent effect; inhibition (RAW264.7 [9]): Dose-dependent effect; inhibition [18]: Dose-dependent effect; inhibition (RAW264.7 [10]): inactive; inhibition [11]: inactive; inhibition (RAW264.7 [12]): Dose-dependent effect; inhibition [19]: Dose-dependent effect; inhibition (RAW264.7 [13]): inactive; inhibition (RAW264.7 [15]): inactive

# Second part, led by results:
IC50 (RAW264.7 [2]) [µM],SMILES,Activity (RAW264.7 [1]),other results
> 100,CC(=O)OC1=C[C@@](C)(O)[C@@H]2CC3=C(C)C(=O)O[C@@]3(O)C[C@@]2(C)C1=O,Non-Toxic,–
> 100,CO[C@@]12C[C@]3(C)[C@H](O)C[C@H](O)[C@H](C)[C@H]3CC1=C(C)C(=O)O2,Non-Toxic,–
57,CC1=C2C[C@@H]3[C@@](C)(C[C@]2(O)OC1=O)C(=O)C=C[C@@]3(C)O,Non-Toxic,–
> 100,CC(=O)O[C@@H]1C(=O)C=C(C)[C@@H]2CC3=C(C)C(=O)O[C@@]3(O)C[C@@]12C,Non-Toxic,–
> 100,CC1=C2C[C@@H]3[C@@H](C)[C@@H](O)C[C@@H](O)[C@@]3(C)C[C@@]2(O)OC1=O,Non-Toxic,–
> 100,CC(=O)O[C@H]1C[C@@H](O)[C@@]2(C)C[C@@]3(O)OC(=O)C(C)=C3C[C@@H]2[C@H]1C,Non-Toxic,–
> 100,CO[C@]12C[C@@]3(C)[C@H](OC(C)=O)C(=O)C=C(C)[C@@H]3CC1=C(C)C(=O)O2,Non-Toxic,–
68.9,CC1=C2C[C@@H]3[C@@H](C)C(=O)C=C[C@@]3(C)C[C@@]2(O)OC1=O,Non-Toxic,–
> 100,CC1=C[C@@H](O)[C@@H](O)[C@@]2(C)C[C@@]3(O)OC(=O)C(C)=C3C[C@H]12,Non-Toxic,–
> 100,CC1=C2CC3=C(C)[C@@H](O)C[C@@H](O)[C@@]3(C)C[C@@]2(O)OC1=O,Non-Toxic,–
